Assays:
[1] = Safety assessments (adverse events) in healthy subjects; type: in vivo, human; conditions: Part A, fruquintinib 5 mg alone or with itraconazole, healthy subjects
Method: Safety was assessed by evaluation of adverse events (AEs), serious AEs, AEs of special interest, physical examinations, vital signs, single 12‐lead electrocardiograms and cardiac monitoring, and clinical laboratory data. All AEs were coded using the Medical Dictionary for Regulatory Activities Version 23.0, and their severity was graded using the National Cancer Institute Common Terminology Criteria for Adverse Events Version 5.0.

[2] = system: P‐gp; conditions: no reference given; cited from earlier work
[3] = parameters: method as in PMID 28730290; conditions: mass balance study, major circulating metabolite; cited from earlier work

| Structure (SMILES) | adverse events [1] | P‐gp substrate [2] | share of total radioactivity exposure in plasma [3] |
| --- | --- | --- | --- |
| CNC(=O)c1c(C)oc2cc(Oc3ncnc4cc(OC)c(OC)cc34)ccc12 [Fruquintinib] | no AEs reported | not a P‐gp substrate | – |
| COc1cc2ncnc(Oc3ccc4c(C(N)=O)c(C)oc4c3)c2cc1OC [M11] | – | – | approximately 17% |
